In patent US12201693B2, “Amanitin conjugates” (Heidelberg Pharma Research GmbH, priority 2016, dated 2025):
*1 amine or outer side, *2 acyl side, *3 side chain or, on linkers, in order; H or OH if unused. Where a SMILES comes first, the peptide text is derived from it. Bridges are numbered along the chain shown (N, C = ends). [ ]: non-standard residue; d: D form. The star is where a group is joined. ξ: configuration not given here. X2 = CC(C)C(NC(=O)CCN1C(=O)C=CC1=O)C(=O)N[C@@H](C)C(=O)Nc1ccc(CN*)cc1; ξTrp(2-yl) = O=C(C(Cc1c([*:3])[nH]c2ccccc12)N[*:1])[*:2]; Ile(4R-OH,5-OH) = C[C@H]([C@H](N)C(=O)O)[C@@H](O)CO; X3 = CC([C@H](N[*:1])C(=O)[*:2])[C@@H](O)CO; X1 = O=C([C@@H]1CC(O)CN1[*:1])[*:2]; ξD = NC(CC(=O)O)C(=O)O; ξC = NC(CS)C(=O)O

Key:
[1] = reactivity with cysteine in PBS buffer, RP-HPLC C18; format: physicochemical; settings: 1 mg/mL compound, 10 mg/mL cysteine in PBS, pH 7.4 at 37° C. after 24 h, 48 h and 6 d
Description: 1 mg/ml α-amanitin 10 mg/mL cysteine in PBS, pH 7.4 at 37° C. after 24 h, 48 h and 6 d RP-HPLC C18.
1 mg/mL β-amanitin 10 mg/mL cysteine in PBS, pH 7.4 at 37° C. after 24 h, 48 h and 6 d RP-HPLC […].
1 mg/mL amanin 10 mg/mL cysteine in PBS, pH 7.4 at 37° C. after 24 h, 48 h and 6 d RP-HPLC […].
1 mg/mL HDP 30.2105, 10 mg/mL cysteine in PBS, pH 7.4 at 37° C. after 24 h, 48 h and 6 d RP-HPLC C18; * impurity.

[2] = tested on: SKBR-3 cells; experiment: cytotoxicity assay on SKBR-3 cells after plasma/PBS stressing of ADCs; format: cell-based; settings: conjugated to T-D265C, SKBR-3 cells 96 h
Description: Test items were incubated in human plasma at 37° C. for 0 an 4 days. Cytotoxicity assay were performed on SKBR-3 cells for 96 h.
Test items were incubated in mouse plasma at 37° C. for 0 an 4 days. Cytotoxicity assay were performed on SKBR-3 cells for 96 h.
Test items were incubated in PBS at 37° C. for 0 an 4 days. Cytotoxicity assay were performed on SKBR-3 cells for 96 h. All ADCs show adequate stability to non-enzymatic environment.

[3] = Western-Blot analysis of T-D265C conjugates after incubation in human plasma, mouse plasma and PBS; format: in vitro ADME; settings: conjugated to T-D265C antibody; 37° C. in human plasma, mouse plasma and PBS for 0, 4 and 10 days
Description: Western-Blot analysis of amatoxin derivatives HOP 30.1699, HDP 30.2060 and HDP 30.2115 conjugated to T-D265C antibody after incubation at 37° C. in human plasma, mouse plasma an phosphate buffered saline (PBS) for 0, 4 and 10 days. Detection was done with a polyclonal anti-amanitin antibody from rabbit and an anti-rabbit antibody conjugated to horseradish peroxidase.

[4] = target: RNA-polymerase II (Homo sapiens, UniProt P24928); settings: complex between amanitin and RNA-polymerase II; cited from earlier work

Q: For `CC[C@H](C)[C@@H]1NC(=O)CNC(=O)C2Cc3c([nH]c4ccccc34)SCC(NC(=O)CNC1=O)C(=O)NC(CC(=O)O)C(=O)N1CC(O)C[C@H]1C(=O)N[C@@H](C(C)[C@@H](O)CO)C(=O)N2` (some centres unmarked) [HDP 30.2105] (cyclo(GIG[ξC][ξD][X1][X3][ξTrp(2-yl)]); thioether 4-8), which reactivity with cysteine [1] is on record?
A: complete absence of reactivity

Q: For `CC[C@H](C)[C@@H]1NC(=O)CNC(=O)C2Cc3c([nH]c4ccccc34)SCC(NC(=O)CNC1=O)C(=O)N[C@@H](CC(=O)NCc1ccc(NC(=O)[C@H](C)NC(=O)C(NC(=O)CCN3C(=O)C=CC3=O)C(C)C)cc1)C(=O)N1CC(O)C[C@H]1C(=O)N[C@@H]([C@@H](C)[C@@H](O)CO)C(=O)N2` (stereo partly drawn) [HDP 30.2115] (cyclo(D(X2)[X1][Ile(4R-OH,5-OH)][ξTrp(2-yl)]GIG[ξC]); thioether 4-8), which “cytotoxicity after plasma stressing” value ([2]; human plasma at 37° C. for 0 and 4 days) is on record?
A: still picomolar activity

Q: What about the “cytotoxicity after plasma stressing” value ([2]; mouse plasma at 37° C. for 0 and 4 days) of the same molecule?
A: remains almost unchanged

Q: What about the “cross-links and loss of the amatoxin moiety (stability)” value [3] of the same molecule?
A: high stability and significantly reduced cross-links

Q: For amanin, which reactivity with cysteine [1] is on record?
A: reduced reactivity

Q: With amanitin as the molecule, how does the Kd [4] read?
A: 3 nM

Q: For α-Amanitin, which reactivity with cysteine [1] is on record?
A: strong reactivity

Q: For β-Amanitin, which reactivity with cysteine [1] is on record?
A: strong reactivity
